Measurements from patent US20220340633A1 (Adepthera LLC, priority 2016, published 2022).
“Also recorded” adds a separate entry of the source. Non-standard residues stand in square brackets, D forms with d. Residues, ends and D or L forms follow the SMILES beside them. *: point of attachment. Palmitoyl = CCCCCCCCCCCCCCCC(=O)*; AEEA = NCCOCCOCC(=O)O

Tests used:
CLR/RAMP1 receptor [1] = target: T1, CLR/RAMP1 receptor (Homo sapiens, UniProt O60894+Q16602); settings: CLR/RAMP1 versus CLR/RAMP2
Description: (§1) Using a receptor activation assay, the dose-dependent stimulatory response of peptide agonists of the present invention on a CLR/RAMP1 receptor, a CLR/RAMP2, or a CLR/RAMP3 receptor complex was determined. A cell line carrying the recombinant CLR/RAMP1, CLR/RAMP2, or a CLR/RAMP3 receptor was employed in the assay. Peptide agonist activities were tested, in duplicate, at 10 different concentrations, starting with 1.0 μM and serially diluted 3-fold, in DMSO. […] The CLR/RAMP1 cAMP, CLR/RAMP2 arrestin assays, and CLR/RAMP3 cAMP (DiscoveRx, Fremont, Calif.) were used.
(§2) For the analysis of antagonistic activity, the synthetic analogs were pre-incubated with the cells before adding the reference ligand at its EC80.

CLR/RAMP3 receptor = CLR/RAMP3 receptor (Homo sapiens, UniProt O60896+Q16602); assay: cell-based
Chain of CLR/RAMP3 receptor (Q16602 23-461): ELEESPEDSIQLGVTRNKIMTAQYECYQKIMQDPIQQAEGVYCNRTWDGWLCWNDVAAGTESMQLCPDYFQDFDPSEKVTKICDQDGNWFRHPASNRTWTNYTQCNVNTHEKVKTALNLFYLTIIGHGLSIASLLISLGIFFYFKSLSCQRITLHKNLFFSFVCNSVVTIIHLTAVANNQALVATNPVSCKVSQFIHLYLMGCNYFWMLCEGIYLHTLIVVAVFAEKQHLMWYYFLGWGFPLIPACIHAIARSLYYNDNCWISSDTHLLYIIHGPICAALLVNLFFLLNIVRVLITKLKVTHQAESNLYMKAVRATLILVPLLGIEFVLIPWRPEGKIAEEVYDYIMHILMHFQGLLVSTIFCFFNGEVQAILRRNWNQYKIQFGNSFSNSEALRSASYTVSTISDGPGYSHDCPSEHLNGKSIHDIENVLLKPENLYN
Chain of CLR/RAMP3 receptor (O60896 24-148): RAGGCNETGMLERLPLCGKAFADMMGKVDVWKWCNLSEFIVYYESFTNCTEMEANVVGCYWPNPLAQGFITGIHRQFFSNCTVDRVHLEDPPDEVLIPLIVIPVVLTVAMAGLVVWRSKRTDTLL
Description: as §1, §2

[2] = test system: primary human lymphatic endothelia cells (HLEC); assay: HLEC proliferation in medium with 2% FBS, MTS assay; settings: 30, 100, and 300 nM, 72 hrs
Description: (§3) The cells were cultured for 72 hrs, and cell viability was assayed with the MTS assay (Promega).

CLR/RAMP2 receptor = target: T2, CLR/RAMP2 receptor (Homo sapiens, UniProt O60895+Q16602); assay: CLR/RAMP2 arrestin receptor activation assay (agonist); assay type: cell-based; settings: CHO-K1, read-out: CLR/RAMP 2 Max Activity % of positive control, CHO-K1 cells; % of positive control (ADM)
T2 construct: host or cells: CHO-K1 cells
T2 sequence (Q16602 23-461): as the sequence (Q16602 23-461) above
T2 sequence (O60895 43-175): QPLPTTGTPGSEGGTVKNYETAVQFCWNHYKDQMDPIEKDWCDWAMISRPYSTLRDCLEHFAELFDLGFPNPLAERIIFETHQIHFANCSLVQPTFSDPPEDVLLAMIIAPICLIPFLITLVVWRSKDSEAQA
Description: as §1

[3] = test system: primary human lymphatic endothelia cells (HLEC); assay: HLEC survival in medium with 0.1% FBS, MTS assay; settings: 30, 100, and 300 nM, 72 hrs
Description: as §3

CLR/RAMP1 receptor [4] = target: T1, CLR/RAMP1 receptor; assay: CLR/RAMP1 cAMP receptor activation assay (agonist); assay type: cell-based; design: host or cells: 1321N1 cells; settings: 1321-N1, read-out: CLR/RAMP 1 Max Activity % of positive control, 1321N1 cells; % of positive control (β-CGRP)
Description: as §1

T1 sequence (Q16602 23-461): as the sequence (Q16602 23-461) above
T1 sequence (O60894 27-148): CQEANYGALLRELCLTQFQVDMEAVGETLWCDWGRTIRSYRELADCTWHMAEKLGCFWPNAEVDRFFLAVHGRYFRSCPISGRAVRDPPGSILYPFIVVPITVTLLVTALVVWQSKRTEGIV

CCCCCCCCCCCCCCCC(=O)N[C@@H](CCCCN)C(=O)N[C@H](C(=O)N[C@@H](CCC(N)=O)C(=O)N[C@@H](CCCCN)C(=O)N[C@@H](CC(C)C)C(=O)N[C@@H](C)C(=O)N[C@@H](Cc1c[nH]cn1)C(=O)N[C@@H](CCC(N)=O)C(=O)N[C@H](C(=O)N[C@@H](Cc1ccc(O)cc1)C(=O)N[C@@H](CCC(N)=O)C(=O)N[C@@H](Cc1ccccc1)C(=O)N[C@H](C(=O)N[C@@H](CC(=O)O)C(=O)N[C@@H](CCCCN)C(=O)N[C@@H](CC(=O)O)C(=O)N[C@H](C(=O)N[C@@H](C)C(=O)N1CCC[C@H]1C(=O)N[C@@H](CCCNC(=N)N)C(=O)N[C@@H](CO)C(=O)N[C@@H](CCCCN)C(=O)N[C@H](C(=O)N[C@@H](CO)C(=O)N1CCC[C@H]1C(=O)N[C@@H](CCC(N)=O)C(=O)NCC(=O)N[C@@H](Cc1ccc(O)cc1)C(N)=O)[C@@H](C)CC)C(C)C)[C@@H](C)O)[C@@H](C)CC)C(C)C [SEQ ID NO: 119]
receptor specificity of antagonist (CLR/RAMP1 receptor [1]): CLR/RAMP2-specific
IC50 (CLR/RAMP3 receptor): 0.8 to 9.2 nM

CCCCCCCCCCCCCCCC(=O)N[C@@H](CCCCN)C(=O)N[C@H](C(=O)N[C@@H](CCC(N)=O)C(=O)N[C@@H](CCCCN)C(=O)N[C@@H](CC(C)C)C(=O)N[C@@H](C)C(=O)N[C@@H](Cc1c[nH]cn1)C(=O)N[C@@H](CCC(N)=O)C(=O)N[C@H](C(=O)N[C@@H](CO)C(=O)N[C@@H](C)C(=O)N1CCC[C@H]1C(=O)N[C@H](C(=O)N[C@@H](CC(=O)O)C(=O)N1CCC[C@H]1C(=O)N[C@@H](CO)C(=O)N[C@@H](CO)C(=O)N1CCC[C@H]1C(=O)N[C@@H](Cc1c[nH]cn1)C(=O)N[C@@H](CO)C(=O)N[C@@H](Cc1ccc(O)cc1)C(N)=O)C(C)C)[C@@H](C)CC)C(C)C [SEQ ID NO: 123]
IC50 (CLR/RAMP3 receptor): 0.8 to 9.2 nM

CCCCCCCCCCCCCCCC(=O)NCCCC[C@H](NC(=O)COCCOCCN)C(=O)N[C@H](C(=O)N[C@@H](CCC(N)=O)C(=O)N[C@@H](CCCCN)C(=O)N[C@@H](CC(C)C)C(=O)N[C@@H](C)C(=O)N[C@@H](Cc1c[nH]cn1)C(=O)N[C@@H](CCC(N)=O)C(=O)N[C@H](C(=O)N[C@@H](Cc1ccc(O)cc1)C(=O)N[C@@H](CCC(N)=O)C(=O)N[C@@H](Cc1ccccc1)C(=O)N[C@H](C(=O)N[C@@H](CC(=O)O)C(=O)N[C@@H](CCCCN)C(=O)N[C@@H](CC(=O)O)C(=O)N[C@@H](CCCCN)C(=O)N[C@@H](CC(=O)O)C(=O)N[C@@H](CC(N)=O)C(=O)N[C@@H](CO)C(=O)N[C@@H](C)C(=O)N1CCC[C@H]1C(=O)N[C@H](C(=O)N[C@@H](CC(=O)O)C(=O)N1CCC[C@H]1C(=O)N[C@@H](CO)C(=O)N[C@@H](CO)C(=O)N1CCC[C@H]1C(=O)N[C@@H](Cc1c[nH]cn1)C(=O)N[C@@H](CO)C(=O)N[C@@H](Cc1ccc(O)cc1)C(N)=O)C(C)C)[C@@H](C)O)[C@@H](C)CC)C(C)C [SEQ ID NO: 78] (H-[AEEA]K(Palmitoyl)VQKLAHQIYQFTDKDKDNSAPVDPSSPHSY-NH2)
IC50 (CLR/RAMP3 receptor): 0.8 to 9.2 nM

CC[C@H](C)[C@H](NC(=O)[C@H](CCC(N)=O)NC(=O)[C@H](Cc1c[nH]cn1)NC(=O)[C@H](C)NC(=O)[C@H](CC(C)C)NC(=O)[C@H](CCCCN)NC(=O)[C@H](CCC(N)=O)NC(=O)[C@@H](NC(=O)[C@@H](NC(=O)[C@@H]1CSSC[C@H](NC(=O)CNC(=O)[C@H](Cc2ccccc2)NC(C)=O)C(=O)N[C@@H](CCCNC(=N)N)C(=O)N[C@@H](Cc2ccccc2)C(=O)NCC(=O)N[C@@H]([C@@H](C)O)C(=O)N1)[C@@H](C)O)C(C)C)C(=O)N[C@@H](Cc1ccc(O)cc1)C(=O)N[C@@H](CCC(N)=O)C(=O)N[C@@H](Cc1ccccc1)C(=O)N[C@H](C(=O)N[C@@H](CC(=O)O)C(=O)N[C@@H](CCCCN)C(=O)N[C@@H](CC(=O)O)C(=O)N[C@@H](CCCCN)C(=O)N[C@@H](CC(=O)O)C(=O)N[C@@H](CC(N)=O)C(=O)N[C@H](C(=O)N[C@@H](C)C(=O)N1CCC[C@H]1C(=O)N[C@@H](CCCNC(=N)N)C(=O)N[C@@H](CO)C(=O)N[C@@H](CCCCN)C(=O)N[C@H](C(=O)N[C@@H](CO)C(=O)N1CCC[C@H]1C(=O)N[C@@H](CCC(N)=O)C(=O)NCC(=O)N[C@@H](Cc1ccc(O)cc1)C(N)=O)[C@@H](C)CC)C(C)C)[C@@H](C)O [SEQ ID NO: 53, reference compound]
HLEC proliferation (in words) [2]: minimal effects; also recorded: negligible effects
Emax (CLR/RAMP2 receptor): 102%
HLEC survival (in words) [3]: minimal effects; also recorded: negligible effects
Emax (CLR/RAMP1 receptor [4]): 69%

CCCCCCCCCCCCCCCC(=O)NCCCC[C@H](NC(=O)COCCOCCN)C(=O)N[C@H](C(=O)N[C@@H](CCC(N)=O)C(=O)N[C@@H](CCCCN)C(=O)N[C@@H](CC(C)C)C(=O)N[C@@H](C)C(=O)N[C@@H](Cc1c[nH]cn1)C(=O)N[C@@H](CCC(N)=O)C(=O)N[C@H](C(=O)N[C@@H](Cc1ccc(O)cc1)C(=O)N[C@@H](CO)C(=O)N[C@@H](C)C(=O)N1CCC[C@H]1C(=O)N[C@H](C(=O)N[C@@H](CC(=O)O)C(=O)N1CCC[C@H]1C(=O)N[C@@H](CO)C(=O)N[C@@H](CO)C(=O)N1CCC[C@H]1C(=O)N[C@@H](Cc1c[nH]cn1)C(=O)N[C@@H](CO)C(=O)N[C@@H](Cc1ccc(O)cc1)C(N)=O)C(C)C)[C@@H](C)CC)C(C)C [SEQ ID NO: 114]
receptor specificity of antagonist (CLR/RAMP1 receptor [1]): CLR/RAMP1-specific
IC50 (CLR/RAMP3 receptor): 0.8 to 9.2 nM

CC[C@H](C)[C@H](NC(=O)[C@H](CCC(N)=O)NC(=O)[C@H](Cc1c[nH]cn1)NC(=O)[C@H](C)NC(=O)[C@H](CC(C)C)NC(=O)[C@H](CCCCN)NC(=O)[C@H](CCC(N)=O)NC(=O)[C@@H](NC(=O)[C@@H](NC(=O)[C@@H]1CSSC[C@H](NC(=O)CNC(=O)[C@H](Cc2ccccc2)NC(=O)[C@H](CO)NC(=O)[C@H](CCCNC(=N)N)NC(=O)[C@H](CC(C)C)NC(=O)CNC(=O)[C@H](CCC(N)=O)NC(=O)[C@H](Cc2ccccc2)NC(=O)[C@H](CC(N)=O)NC(=O)[C@H](CC(N)=O)NC(=O)[C@H](CCSC)NC(=O)[C@H](CO)NC(=O)[C@H](CCC(N)=O)NC(=O)[C@H](CCCNC(=N)N)NC(=O)[C@H](Cc2ccc(O)cc2)NC(C)=O)C(=O)N[C@@H](CCCNC(=N)N)C(=O)N[C@@H](Cc2ccccc2)C(=O)NCC(=O)N[C@@H]([C@@H](C)O)C(=O)N1)[C@@H](C)O)C(C)C)C(=O)N[C@@H](Cc1ccc(O)cc1)C(=O)N[C@@H](CCC(N)=O)C(=O)N[C@@H](Cc1ccccc1)C(=O)N[C@H](C(=O)N[C@@H](CC(=O)O)C(=O)N[C@@H](CCCCN)C(=O)N[C@@H](CC(=O)O)C(=O)N[C@@H](CCCCN)C(=O)N[C@@H](CC(=O)O)C(=O)N[C@@H](CC(N)=O)C(=O)N[C@H](C(=O)N[C@@H](C)C(=O)N1CCC[C@H]1C(=O)N[C@@H](CCCNC(=N)N)C(=O)N[C@@H](CO)C(=O)N[C@@H](CCCCN)C(=O)N[C@H](C(=O)N[C@@H](CO)C(=O)N1CCC[C@H]1C(=O)N[C@@H](CCC(N)=O)C(=O)NCC(=O)N[C@@H](Cc1ccc(O)cc1)C(N)=O)[C@@H](C)CC)C(C)C)[C@@H](C)O [SEQ ID NO: 54, reference compound]
HLEC proliferation (in words) [2]: minimal effects; also recorded: negligible effects
HLEC survival (in words) [3]: minimal effects; also recorded: negligible effects

CCCCCCCCCCCCCCCC(=O)NCCCC[C@H](NC(=O)COCCOCCN)C(=O)N[C@H](C(=O)N[C@@H](CCC(N)=O)C(=O)N[C@@H](CCCCN)C(=O)N[C@@H](CC(C)C)C(=O)N[C@@H](C)C(=O)N[C@@H](Cc1c[nH]cn1)C(=O)N[C@@H](CCC(N)=O)C(=O)N[C@H](C(=O)N[C@@H](Cc1ccc(O)cc1)C(=O)N[C@@H](CCC(N)=O)C(=O)N[C@@H](Cc1ccccc1)C(=O)N[C@H](C(=O)N[C@@H](CC(=O)O)C(=O)N[C@@H](CCCCN)C(=O)N[C@@H](CC(=O)O)C(=O)N[C@@H](CO)C(=O)N[C@@H](C)C(=O)N1CCC[C@H]1C(=O)N[C@H](C(=O)N[C@@H](CC(=O)O)C(=O)N1CCC[C@H]1C(=O)N[C@@H](CO)C(=O)N[C@@H](CO)C(=O)N1CCC[C@H]1C(=O)N[C@@H](Cc1c[nH]cn1)C(=O)N[C@@H](CO)C(=O)N[C@@H](Cc1ccc(O)cc1)C(N)=O)C(C)C)[C@@H](C)O)[C@@H](C)CC)C(C)C [SEQ ID NO: 112] (H-[AEEA]K(Palmitoyl)VQKLAHQIYQFTDKDSAPVDPSSPHSY-NH2)
IC50 (CLR/RAMP3 receptor): 0.8 to 9.2 nM
